Measured values: PMC7677715 (Redox Biology, 2020)

Legend:
[1] = molecular target: T1, γ-TTP (α-tocopherol transfer protein A156L) (Homo sapiens, UniProt P49638, A156L); experiment: X-ray crystal structure; assay type: binding
T1 sequence (P49638 48-278 A156L): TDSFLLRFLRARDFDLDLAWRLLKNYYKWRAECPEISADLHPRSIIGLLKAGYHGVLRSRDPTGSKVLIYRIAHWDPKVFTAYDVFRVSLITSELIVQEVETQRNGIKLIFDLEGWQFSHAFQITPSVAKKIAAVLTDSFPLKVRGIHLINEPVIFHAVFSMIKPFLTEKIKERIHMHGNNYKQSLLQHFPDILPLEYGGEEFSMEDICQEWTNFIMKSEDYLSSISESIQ

[2] = molecular target: T2, α-tocopherol transfer protein (α-TTP) (Homo sapiens, UniProt P49638); experiment: FRET ligand transfer to/from liposomes; assay type: binding
T2 sequence (P49638 1-278): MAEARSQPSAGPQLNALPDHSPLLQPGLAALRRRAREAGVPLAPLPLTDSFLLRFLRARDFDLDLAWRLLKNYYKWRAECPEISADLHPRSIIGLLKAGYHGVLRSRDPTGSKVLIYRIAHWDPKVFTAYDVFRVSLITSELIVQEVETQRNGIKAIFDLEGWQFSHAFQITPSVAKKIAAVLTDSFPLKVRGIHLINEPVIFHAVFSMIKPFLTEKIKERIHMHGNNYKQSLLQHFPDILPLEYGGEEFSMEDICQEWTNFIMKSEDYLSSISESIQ

| SMILES | Kd [1] [nM] | Kp [2] |
| --- | --- | --- |
| Cc1c(O)cc2c(c1C)O[C@](C)(CCC[C@H](C)CCC[C@H](C)CCCC(C)C)CC2 [RRR-γ-tocopherol] | 53.8 | – |
| Cc1c(O)cc2c(c1C)O[C@](C)(CCC[C@H](C)CCC[C@H](C)CCCC(C)C)CC2 [γ-tocopherol] | – | 4.05 |
